Assay [1] has as its system Wnt activity (Sp5-Luc reporter, TCF/LEF binding sites) in SW480 colon carcinoma cells. Kind of assay: Wnt activity screening assay, Sp5-Luc reporter gene in SW480 cells. The following applies: Homo sapiens; for inhibition at 10 µM: given for EC50 >10 μM, read-out: percent inhibition at 10 μM; for EC50: overnight incubation. The class given is cell-based. A digest of the protocol: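 Luminescence read-out (BrightGlo) from stable Sp5-Luc SW480 cells, normalized to DMSO-only wells. Cells were treated overnight at 37° C in 1% FBS medium across a 1:3, 10-point series starting at 10 μM. EC50 from variable-slope four-parameter regression; percent inhibition at 10 μM given where EC50 >10 μM.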

The test system of assay [2] is primary human fibroblasts derived from IPF patients (LL29 cells) treated with TGF-β1. Kind of assay: Inhibition of fibrotic process, αSMA staining in TGF-β1 treated LL29 fibroblasts. The following applies: Fibroblast; for EC50: 96 h, TGF-β1 20 ng/mL, 4 days, % cells positive for αSMA. It counts as cell-based. A digest of the protocol: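 Human IPF-derived LL29 lung fibroblasts in 1% FBS, TGF-β1 20 ng/mL, 11-point compound series, 0.1% DMSO, 4 days at 37 °C. SYTOX-positive cells excluded; % αSMA-positive cells imaged, normalized to TGF-β1/DMSO wells, EC50 by nonlinear fit. Above 10 μM, % inhibition at 10 μM given.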

Experimental findings from patent US10519169B2, “3-(1H-pyrrolo[2,3-C]pyridin-2-yl)-1 H-pyrazolo[4,3-B]pyridines and therapeutic uses thereof” (Samumed, LLC, priority 2015, dated 2019) are described below.

Turning to `c1cc(-c2cncc3[nH]c(-c4n[nH]c5ccc(-c6cncc(CN7CCCCC7)c6)nc45)cc23)ccn1` [Compound 127, 5-(5-(Piperidin-1-ylmethyl)pyridin-3-yl)-3-(4-(pyridin-4-yl)-1H-pyrrolo[2,3-c]pyridin-2-yl)-1H-pyrazolo[4,3-b]pyridine], in assay [1], the inhibition (usually the percentage by which the read-out fell short of the control) at 10 µM came to 29.6% and the EC50 (in general, the concentration that produces a half-maximal response) was > 10 µM. This molecule also displayed an EC50 in assay [2] of 4.96 µM.
As to `c1cc(-c2cncc3[nH]c(-c4n[nH]c5ccc(-c6cncc(OCCN7CCCC7)c6)nc45)cc23)co1` [Compound 690, 3-(4-(Furan-3-yl)-1H-pyrrolo[2,3-c]pyridin-2-yl)-5-(5-(2-(pyrrolidin-1-yl)ethoxy)pyridin-3-yl)-1H-pyrazolo[4,3-b]pyridine], the inhibition at 10 µM in assay [1] is 7.4%; in assay [2] (given for EC50 >10 μM, TGF-β1, αSMA, 10 μM, read-out: percent inhibition at 10 μM), 29.5%. Besides, the EC50 in assay [1] and in assay [2] was > 10 µM in each case.
For the molecule `FC1(F)CCN(Cc2cncc(-c3ccc4[nH]nc(-c5cc6c(-c7cccnc7)cncc6[nH]5)c4n3)c2)C1` [Compound 110, 5-(5-((3,3-Difluoropyrrolidin-1-yl)methyl)pyridin-3-yl)-3-(4-(pyridin-3-yl)-1H-pyrrolo[2,3-c]pyridin-2-yl)-1H-pyrazolo[4,3-b]pyridine], the EC50 came to 3.85 µM in assay [1] and 0.329 µM in assay [2].
In the case of `Cc1ncc(-c2ccc3[nH]nc(-c4cc5c(-c6ccncc6)cncc5[nH]4)c3n2)n1C` [Compound 573, 5-(1,2-Dimethyl-1H-imidazol-5-yl)-3-(4-(pyridin-4-yl)-1H-pyrrolo[2,3-c]pyridin-2-yl)-1H-pyrazolo[4,3-b]pyridine], in assay [1], the inhibition at 10 µM was found to be 43.9% and the EC50 was > 10 µM. For the same molecule, it took 2.19 µM to reach a half-maximal effect in assay [2] (EC50).
With `CS(=O)(=O)NCc1cc(F)cc(-c2cncc3[nH]c(-c4n[nH]c5ccc(-c6ccccn6)nc45)cc23)c1` [Compound 504, N-(3-Fluoro-5-(2-(5-(pyridin-2-yl)-1H-pyrazolo[4,3-b]pyridin-3-yl)-1H-pyrrolo[2,3-c]pyridin-4-yl)benzyl)methanesulfonamide], the EC50 is 3.65 µM in assay [1] and 3.67 µM in assay [2].
The corresponding values for `Fc1cccc(-c2cncc3[nH]c(-c4n[nH]c5ccc(-c6cncc(CN7CCCCC7)c6)nc45)cc23)c1` [Compound 15, 3-(4-(3-Fluorophenyl)-1H-pyrrolo[2,3-c]pyridin-2-yl)-5-(5-(piperidin-1-ylmethyl)pyridin-3-yl)-1H-pyrazolo[4,3-b]pyridine] are 3.71 µM and > 10 µM.
